According to the NIST ThermoML archive (doi:10.1016/j.fluid.2014.04.004):

Experiments:
[1] = Liquid, Closed cell (Static) method
[2] = excess molar enthalpy (molar enthalpy of mixing); xn = mol fraction of the nth substance listed; settings: 303.15 K, 101 kPa, Liquid, Calvet calorimetry

Cc1cccc(C)n1 [2,6-dimethylpyridine]
[1]
Settings | vapor or sublimation pressure [kPa]
283.37 K | 0.3
288.33 K | 0.42
293.3 K | 0.581
298.3 K | 0.794
303.27 K | 1.07
313.27 K | 1.879
323.24 K | 3.163
333.21 K | 5.14
343.2 K | 8.101
353.14 K | 12.23

Cc1cncc(C)c1 [3,5-dimethylpyridine]
[1]
Settings | vapor or sublimation pressure [kPa]
273.5 K | 0.04
283.45 K | 0.085
293.47 K | 0.172
303.54 K | 0.331
313.56 K | 0.612
323.59 K | 1.078
333.66 K | 1.824
343.62 K | 2.973
353.63 K | 4.688

C1CCCCC1 [cyclohexane]
[1]
Settings | vapor or sublimation pressure [kPa]
283.32 K | 6.389
288.28 K | 8.195
293.27 K | 10.42
298.25 K | 13.17
303.27 K | 16.45
313.24 K | 24.97
323.21 K | 36.72
333.21 K | 52.48
343.18 K | 72.98
353.14 K | 99.11

Cc1cncc(C)c1 [3,5-dimethylpyridine] + C1CCCCC1
[2]
Settings | excess molar enthalpy [kcal/mol]
x1 = 0.085 | 0.112
x1 = 0.221 | 0.227
x1 = 0.312 | 0.276
x1 = 0.386 | 0.295
x1 = 0.515 | 0.306
x1 = 0.635 | 0.279
x1 = 0.735 | 0.217
x1 = 0.83 | 0.149
x1 = 0.899 | 0.0951

Cc1cccc(C)n1 [2,6-dimethylpyridine] + C1CCCCC1
[2]
Settings | excess molar enthalpy [kcal/mol]
x1 = 0.09 | 0.123
x1 = 0.22 | 0.239
x1 = 0.275 | 0.269
x1 = 0.308 | 0.281
x1 = 0.434 | 0.299
x1 = 0.529 | 0.283
x1 = 0.669 | 0.226
x1 = 0.806 | 0.142
x1 = 0.8998 | 0.0748
